Here are results for 8 compounds from BindingDB's records for doi:10.1016/j.bmcl.2017.11.009 (De Montfort University, 2017).

pEC50: −log10 of the molar value.

A short description of the first series: Inhibition of recombinant human CYP1B1 expressed in HEK293 cells assessed as potentiation of cisplatin-induced cytotoxicity by measuring cisplatin EC50 by MTT assay (Rvb = 65.01 +/- 7.01 uM). On the technique in general: Tetrazolium dyes change colour on reduction, which living cells bring about.
Usually pEC50 stands for −log10 of the EC50, conventionally taken in molar units. With `COc1ccccc1/C=C/C(=O)c1ccncc1`, the pEC50 is 5.00.

For `COc1cc(/C=C/C(=O)c2ccncc2)cc(OC)c1`, the negative logarithm of the EC50 (pEC50) was 5.00.

Take `COc1ccc(/C=C/C(=O)c2ccncc2)c(OC)c1OC`: the pEC50 is 5.00.

For `COc1cccc(/C=C/C(=O)c2ccncc2)c1`, the pEC50 was 5.00.

A further series is described as follows: Inhibition of recombinant human CYP1A1 expressed in HEK293 cells assessed as reduction in benzo(a)pyrene-induced toxicity by measuring B[a]P EC50 at 2 times IC50 by MTT assay (Rvb = 0.8 +/- 0.14 uM).
With `CCOc1cc(/C=C/C(=O)c2ccncc2)cc(OCC)c1OCC`, the pEC50 is 4.85.

As to `CCOc1cc(/C=C/C(=O)c2ccncc2)cc(OC)c1OC`, the pEC50 is 4.85.

Turning to `CCOc1cc(/C=C/C(=O)c2ccncc2)cc(OC)c1OCC`, the pEC50 is 4.85.

For the compound `COc1cc(/C=C/C(=O)c2ccncc2)cc(OC)c1OC`, the pEC50 was 4.85.
